Data published in patent publication US7064139B2, “Method for treating retroviral infections” (Uniroyal Chemical Company, Inc., priority 2001, dated 2006).
In brackets after ≈: the same amount, converted by molar mass. Read-outs that look alike come from different tables or passages of the source.

Legend:
HIV-1 (IIIB) = assay: microbe, parasite or virus in culture; assay type: cell-based; conditions: Human immunodeficiency virus 1, IIIB, CCRF-CEM; CEM cells, syncytium formation, day four post infection; read-out: EC50 (ug/ml) HIV-1
Procedure, shortened: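 Human T-lymphoblast CEM cells at roughly 300,000 cells per ml were infected with about 100 CCID50 of HIV-1 (IIIB). Then 100 μl of the infected suspension went into 200 μl microtiter wells holding 100 μl of 5-fold serial compound dilutions. Inhibition of syncytium formation was scored microscopically on day four post infection, and protection against virus-induced cytopathicity was recorded.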

HIV-2 (ROD) = assay: Inhibition of HIV-2 syncytium formation in CEM cells; assay type: cell-based; conditions: for EC50: Human immunodeficiency virus 2, CCRF-CEM, CEM cells, syncytium formation, day four post infection, read-out: EC50 (ug/ml) HIV-2
Procedure, shortened: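 Human T-lymphoblast CEM cells, suspended at roughly 300,000 cells per ml of culture medium, were infected with about 100 CCID50 of HIV-2 (ROD). Aliquots of 100 μl of infected cells were placed in 200 μl microtiter wells holding 100 μl of serial 5-fold compound dilutions, and syncytium formation was scored microscopically four days after infection.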

Davis strain CMV = assay: Reduction of CMV-induced cytopathicity in HEL cells; assay type: cell-based, human cytomegalovirus (HCMV); conditions: HEL cells; for EC50: Human betaherpesvirus 5, 168 h, virus-induced cytopathicity after seven days, read-out: Antiviral EC50 (ug/ml) Davis strain CMV
Procedure, shortened: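 Confluent HEL cells were infected with 100 PFU/well CMV for 1–2 h, then washed and kept in MEM with 2% FCS and test compound. EC50 is the concentration cutting virus-induced cytopathicity by 50% versus untreated control at day 7. Where cytotoxicity interfered, percent protection at the stated concentration is given.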

[1] = test system: HHV-6 (Z-29 strain, variant B); assay: Anti-HHV-6 activity in MOLT-3 cells (CPE and viral DNA slot blot); assay type: cell-based, human herpes virus type 6 (HHV-6); conditions: Homo sapiens
Protocol: (§1) Two human immature T-lymphoblastoid cell lines were used: HSB-2, obtained from American Type Culture Collection (No. CCL 120.1); and MOLT-3, purchased from ABI Technologies (Columbia, Md., USA). The cells were propagated in RPMI 1640 medium supplemented with 10% fetal calf serum, 2 mM L-glutamine, 0.075% sodium bicarbonate and gentamycin. The cultures were incubated at 37° C. in a humidified and CO2 controlled incubator.
The GS strain of HHV-6 variant A was kindly provided by Dr. R. Gallo, while the Z-29 strain of HHV-6 variant B was obtained from ABI Technologies (Columbia, Md., USA). For preparation of virus stocks, suspensions of HSB-2 cells infected with strain GS, or MOLT-3 cells infected with strain Z-29, were collected at 10–12 days post infection, when the cytopathic effect (CPE) was maximal and cells were >90% virus positive (as determined by immunofluorescence detection of HHV-6 antigens). Since the titer of virus released in culture supernatant was insufficient, virus stocks were used as whole cell suspensions, which were relatively stable when kept in aliquots at −80° C.
Stock solutions of the test compounds or of standards were prepared in dimethylsulfoxide or phosphate buffered saline (PBS). Working dilutions for the antiviral assays were prepared by appropriate dilution of the stock solutions in cell culture medium. The antiherpetic drug Foscarnet (PFA, Foscavir® from Astra, Södertälje, Sweden) was used as standard.
On day 0, the GS and Z-29 strains of HHV-6 were inoculated onto HSB-2 cells and MOLT-3 cells, respectively, at a multiplicity of infection of 0.001 CCID50 (50% cell culture infective doses) per cell, and a cell suspension having a cell density of approximately 5×10^6 cells per ml of culture medium. After two hours of virus adsorption at 37° C., the unadsorbed virus was removed by centrifugation and the infected cells were resuspended and transferred to 48-well microtrays containing the test compounds or control in two- to five-fold dilutions. The final cell density of the suspended cells was approximately 0.8×10^6 cells per ml of culture medium.
(§2) The cells were incubated at 37° C. and subcultivated on days four and seven by two-fold dilution in medium containing fresh test compound or control. On days 10–14, the cells were examined microscopically to score the viral cytopathic effect (CPE) visible by the appearance of large ballooning cells and drug toxicity. Then total DNA was extracted from the infected cells with the QIAamp Blood Kit (Qiagen, Germany), using the manufacturer's instructions, and the DNA extracts were frozen at −20° C. until further analysis.
A digoxigenin labeled probe specific for strain GS or Z-29, was prepared by PCR reaction in the presence of digoxigenin-dUTP, on a 1-μl aliquot of a DNA extract prepared from infected cells showing manifest CPE. The 5′-3′ primer sequence was GCTAGAACG TATTTGCTGCAGAACG (Seq. Id. No. 1) and […] (Seq. Id. No. 2), delimiting a 259 bp sequence within the U67 gene. The amplified product was separated on agarose gel and extracted from the gel fragment with the QIAquick gel extraction kit (Qiagen, Germany) after which the purified probe was frozen at −20° C.
For quantitation of viral DNA in the infected and drug-treated cell cultures, appropriate aliquots of the total DNA extracts (containing 5 μg of total DNA, as determined spectrophotometrically at 260 nm) were boiled during 10 min, and blotted on a nylon membrane (Hybond-N from Amersham) using a Hoefer slot blot apparatus from Pharmacia (Sweden). After UV cross-linking, the membrane was prehybridized during 30 min at 42° C. with DIG (digoxigenin) easy Hyb solution® (Boehringer Mannheim, Germany). Then, the GS- or Z-29 specific digoxigenin labeled probe was added and allowed to hybridize by incubation overnight at 42° C. […]

MOLT-3 cells = assay: Toxicity in MOLT-3 cells, changes in cell morphology by microscopic examination; assay type: cell-based, human
Protocol: as §1, §2
The antiviral IC50 was calculated by extrapolation and defined as the compound concentration that produced 50% inhibition of virus replication as determined by microscopic examination or quantitation of viral DNA. Toxicity of the compounds was expressed as minimum cytotoxic concentration (MCC), or the lowest compound concentration that caused a microscopically visible alteration in cellular morphology.

[2] = MOLT-3, read-out: EC50 Based on CPE, MOLT-3 cells, Exp. 1
[3] = MOLT-3, read-out: EC50 Based on CPE, MOLT-3 cells, Exp. 2
[4] = MOLT-3, read-out: EC50 Based on CPE, MOLT-3 cells, Exp. 3
[5] = MOLT-3, read-out: EC50 Based on Viral DMA Detection, MOLT-3 cells, Exp. 1
[6] = MOLT-3, read-out: EC50 Based on Viral DMA Detection, MOLT-3 cells, Exp. 3
[7] = MOLT-3, read-out: EC50 Based on Viral DMA Detection, MOLT-3 cells, Exp. 2

Row | SMILES | EC50 (HIV-1 (IIIB)) | EC50 (HIV-2 (ROD)) | Antiviral % Inhibition Davis strain CMV (Davis strain CMV; estimate of percent protection at the concentration in the previous column) | EC50 (Davis strain CMV) | EC50 [1, 2] | EC50 [1, 3] | EC50 [1, 4] | EC50 [1, 5] | EC50 [1, 6] | MIC (concentration causing minimal changes in cell morphology) (MOLT-3 cells; Exp. 1) | MIC (concentration causing minimal changes in cell morphology) (MOLT-3 cells; Exp. 2) | MIC (concentration causing minimal changes in cell morphology) (MOLT-3 cells; Exp. 3) | HIV-2 % Protection (HIV-2 (ROD); protection of CEM cells against virus-induced cytopathicity at the concentration in the previous column) | melting point | EC50 [1, 7]
1 | [O-][n+]1ccccc1[S+]([O-])Cc1ccccc1 (stereo not shown) [Compound 5, 2-(Benzylsulfinyl)-pyridine-N-oxide] | 3.4 µg/mL (≈ 14.6 µM) | 2.1 µg/mL (≈ 9 µM) | 0.0% | > 50 µg/mL | > 100 µg/mL | > 200 µg/mL | > 100 µg/mL | > 100 µg/mL | > 100 µg/mL | 100 μg/ml | 100 μg/ml | 100 μg/ml |  |  | 
2 | Cc1ccc(C)c(CS(=O)(=O)c2c(C)ccc[n+]2[O-])c1 [Compound 165, 2-[((2,5-dimethylphenyl)methyl)sulfonyl]-3-methylpyridine-1-oxide] | 0.14 µg/mL (≈ 0.48 µM) | > 4 µg/mL |  |  |  |  |  |  |  |  |  |  | 0.0% | 171 to 173 °C | 
3 | Cc1ccc(C)c(CS(=O)(=O)c2cccc[n+]2[O-])c1 [Compound 10, 2-(2,5-Dimethylphenylmethylsulfonyl)pyridine N-oxide] | 1.8 µg/mL (≈ 6.49 µM) | 5.8 µg/mL (≈ 20.9 µM) |  | 10 µg/mL (≈ 36.1 µM) | 12.6 µg/mL (≈ 45.4 µM) | 11.1 µg/mL (≈ 40 µM) | 11.8 µg/mL (≈ 42.5 µM) | 21.8 µg/mL (≈ 78.6 µM) | 15.6 µg/mL (≈ 56.2 µM) | 50 μg/ml | 100 μg/ml | ≧50 μg/ml |  |  | 9.4 µg/mL (≈ 33.9 µM)
4 | O=S(=O)(Cc1ccccc1)c1cccc[n+]1[O-] [Compound 6, 2-(Benzylsulfonyl)-pyridine-N-oxide] | 4.4 µg/mL (≈ 17.7 µM) | 4.4 µg/mL (≈ 17.7 µM) |  | 19.5 µg/mL (≈ 78.2 µM) | 17.1 µg/mL (≈ 68.6 µM) | 8.7 µg/mL (≈ 34.9 µM) | 12.9 µg/mL (≈ 51.7 µM) | 28.1 µg/mL (≈ 113 µM) | 22.7 µg/mL (≈ 91.1 µM) | 100 μg/ml | 100 μg/ml | 100 μg/ml |  |  | 17.3 µg/mL (≈ 69.4 µM)
5 | O=C(O)P(=O)(O)O [PFA, Foscarnet, reference compound] |  |  |  |  | 8.9 µg/mL (≈ 70.6 µM) | 4 µg/mL (≈ 31.7 µM) | 6.5 µg/mL (≈ 51.6 µM) | 9.4 µg/mL (≈ 74.6 µM) | 9.1 µg/mL (≈ 72.2 µM) | >100 μg/ml | >100 μg/ml | >100 μg/ml |  |  | 8.8 µg/mL (≈ 69.8 µM)
